Experiment [1] addresses T1, EIF2AK3 (PERK) catalytic domain (amino acids 536-1116) (Homo sapiens, UniProt Q9NZJ5).
T1 construct: EIF2AK3 (PERK) catalytic domain (amino acids 536-1116)
T1 sequence (Q9NZJ5 536-1116): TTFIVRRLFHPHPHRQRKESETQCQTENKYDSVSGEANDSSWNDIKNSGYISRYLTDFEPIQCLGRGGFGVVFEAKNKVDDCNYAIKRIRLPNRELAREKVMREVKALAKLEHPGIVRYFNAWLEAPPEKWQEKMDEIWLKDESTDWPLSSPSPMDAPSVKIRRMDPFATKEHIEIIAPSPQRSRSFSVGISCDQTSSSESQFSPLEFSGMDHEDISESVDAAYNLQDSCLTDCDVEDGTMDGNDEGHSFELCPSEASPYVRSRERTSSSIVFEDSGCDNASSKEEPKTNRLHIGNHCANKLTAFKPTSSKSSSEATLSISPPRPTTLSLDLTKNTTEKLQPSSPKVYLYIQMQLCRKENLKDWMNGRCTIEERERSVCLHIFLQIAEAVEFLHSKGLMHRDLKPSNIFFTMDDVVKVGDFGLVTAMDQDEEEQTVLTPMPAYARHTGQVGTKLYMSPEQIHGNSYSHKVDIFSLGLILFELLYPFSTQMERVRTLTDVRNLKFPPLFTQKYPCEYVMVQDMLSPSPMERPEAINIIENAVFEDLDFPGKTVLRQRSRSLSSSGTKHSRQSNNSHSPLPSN
Nature of the experiment: PERK in vitro activity assay (isolated), TR-FRET kinase assay. The class given is biochemical. The following applies: isolated PERK enzyme, 1.5 μM ATP; read-out: Biochemical IC50. An excerpt: PERK In Vitro Activity Assay (Isolated):
In vitro Inhibition of PERK Enzyme Activity (isolated) Recombinant human EIF2AK2 (PKR) catalytic domain (amino acids 252-551), EIF2AK3 (PERK) catalytic domain (amino acids 536-1116), GFP-eIF2a substrate, and Terbium-labelled phospho-eIF2a antibody is obtained (Invitrogen, Carlsbad, Calif.).
Express and purify HIS-SUMO-GCN2 catalytic domain (amino acids 584-1019) from E. coli. Perform TR-FRET kinase assays in the absence or presence of inhibitors in a reaction buffer consisting of 50 mM HEPES, pH 7.5, 10 mM MgCb, 1.0 mM EGTA, and 0.01% Brij-35, and 100-200 nM GFP-eIF2a substrate. […] Add test compound, initiate the reaction by addition of enzyme, and incubate at room temperature for 45 minutes. Stop the reaction by addition of EDTA to a final concentration of 10 mM, add Terbium-labelled phospho-eIF2a antibody at a final concentration of 2 nM, and incubate for 90 minutes. Monitor the resulting fluorescence in an EnVison® Multilabel reader (PerkinElmer, Waltham, Mass.). Determine TR-FRET ratios and the resulting IC50 values using a 4-parameter nonlinear logistic equation as shown: Y=(A+((B−A)/(1+((C/x)[…])))) where, Y=% specific inhibition, A=Bottom of the curve, B=Top of the curve, C=absolute IC50 (concentration causing 50% inhibition), and D=hill slope.
For orientation: In TR-FRET formats the signal depends on donor and acceptor labels being close together.

Experiment [2] relates to GFP-eIF2α in HEK293 cells. Nature of the experiment: PERK cellular assay, TR-FRET in HEK293-EGFP-eIF2a cells after tunicamycin-induced ER stress. The settings on record: HEK293-EGFP-eIF2a cells, tunicamycin 2 hours, read-out: Cellular eIF2α IC50. The class given is cell-based. As to the method:
Stable cell lines were created in HEK293 cells using lentiviral particles harboring an expression vector for GFP-eIF2α. Cells were selected using puromycin and enriched using fluorescence activated cell sorting against GFP. HEK293-EGFP-eIF2a cells were plated at 5000 cells/well in 384-well assay plates and incubated overnight at 37° C., 5% CO2. Inhibitor compounds were added to the wells by Echo acoustic dispensing and incubated for 30 minutes at 37° C., 5% CO2 prior to induction of ER stress by addition of tunicamycin to […] for 2 hours. Cells were lysed and TR-FRET was measured in an EnVision plate reader (PerkinElmer). FRET ratio data was normalized to signal from lysates treated with DMSO vehicle control and plotted as percent inhibition against 10-point; 3-fold dilution series of inhibitors. IC50 values were calculated using 4-parameter logistical fitting in XLFit.

Where two headings read alike, the source gives them in different places.

The results in this text go back to US20220356186A1, “PERK INHIBITING PYRROLOPYRIMIDINE COMPOUNDS” (HiberCell, Inc., priority 2019, published 2022).

For orientation: IC50 means the concentration that gives 50% inhibition.

Consider `Cc1nc(N)c2c(-c3ccc(NC(=O)C(O)c4cccc(F)c4)cc3C)cn(C)c2n1` (single isomer, unassigned) [Example 2, N-(4-(4-amino-2,7-dimethyl-7H-pyrrolo[2,3-d]pyrimidin-5-yl)-3-methylphenyl)-2-(3-fluorophenyl)-2-hydroxyacetamide], for which the IC50 was in the range of 51 to 100 nM in experiment [1] and 251 to 500 nM in experiment [2].

For the compound `Cn1cc(-c2ccc(NC(=O)C(O)c3cccc(F)c3)cc2F)c2c(N)ncnc21` (single isomer, unassigned) [Example 3, N-(4-(4-amino-7-methyl-7H-pyrrolo[2,3-d]pyrimidin-5-yl)-3-fluorophenyl)-2-(3-fluorophenyl)-2-hydroxyacetamide], the IC50 lay in the range of 1 to 25 nM in experiment [1] and 26 to 50 nM in experiment [2].

As to `Cn1cc(-c2ccc(NC(=O)C(O)c3cccc(F)c3)cc2F)c2c(N)ncnc21` (single isomer, unassigned) [Example 4, N-(4-(4-amino-7-methyl-7H-pyrrolo[2,3-d]pyrimidin-5-yl)-3-fluorophenyl)-2-(3-fluorophenyl)-2-hydroxyacetamide], the IC50 in experiment [1] and in experiment [2] was 1 to 25 nM throughout.

As to `Cc1nc(N)c2c(-c3ccc(NC(=O)C(O)c4cccc(F)c4)cc3OC(F)(F)F)cn(C)c2n1` (single isomer, unassigned) [Example 21, N-(4-(4-amino-2,7-dimethyl-7H-pyrrolo[2,3-d]pyrimidin-5-yl)-3-(trifluoromethoxy)phenyl)-2-(3-fluorophenyl)-2-hydroxyacetamide], the concentration for half-maximal inhibition (IC50) in experiment [1] was 1 to 25 nM; in experiment [2], 501 to 1000 nM.

Take `Cc1nc(N)c2c(-c3ccc(NC(=O)C(O)c4cccc(F)c4)cc3OC(F)(F)F)cn(C)c2n1` (single isomer, unassigned) [Example 22, N-(4-(4-amino-2,7-dimethyl-7H-pyrrolo[2,3-d]pyrimidin-5-yl)-3-(trifluoromethoxy)phenyl)-2-(3-fluorophenyl)-2-hydroxyacetamide]: the IC50 in experiment [1] is 101 to 250 nM; in experiment [2], over 5000 nM.

For `Cc1nc(N)c2c(-c3ccc(NC(=O)C(O)c4cc(F)cc(C(F)(F)F)c4)cc3C)cn(C)c2n1` (single isomer, unassigned) [Example 54, N-(4-(4-amino-2,7-dimethyl-7H-pyrrolo[2,3-d]pyrimidin-5-yl)-3-methylphenyl)-2-(3-fluoro-5-(trifluorophenyl)phenyl)-2-hydroxyacetamide], the IC50 fell in the range of 1 to 25 nM in experiment [1] and 26 to 50 nM in experiment [2].

`Cc1nc(N)c2c(-c3ccc(NC(=O)C(O)c4cc(F)cc(C(F)(F)F)c4)cc3C)cn(C)c2n1` (single isomer, unassigned) [Example 55, N-(4-(4-amino-2,7-dimethyl-7H-pyrrolo[2,3-d]pyrimidin-5-yl)-3-methylphenyl)-2-(3-fluoro-5-(trifluoromethyl)phenyl)-2-hydroxyacetamide]: the 50% inhibitory concentration (IC50) in experiment [1] was 101 to 250 nM; in experiment [2], 251 to 500 nM.

Consider `Cc1nc(N)c2c(-c3ccc(NC(=O)C(O)c4cccc5cnn(C)c45)cc3C)cn(C)c2n1` (single isomer, unassigned) [Example 64, N-(4-(4-amino-2,7-dimethyl-7H-pyrrolo[2,3-d]pyrimidin-5-yl)-3-methylphenyl)-2-hydroxy-2-(1-methyl-1H-indazol-7-yl)acetamide], for which the IC50 fell in the range of 251 to 500 nM in experiment [1] and 2000 to 3000 nM in experiment [2] (Homo sapiens, HEK293, 2 h).

Turning to `Cc1nc(N)c2c(-c3ccc(NC(=O)C(O)c4cccc5cnn(C)c45)cc3C)cn(C)c2n1` (single isomer, unassigned) [Example 65, N-(4-(4-amino-2,7-dimethyl-7H-pyrrolo[2,3-d]pyrimidin-5-yl)-3-methylphenyl)-2-hydroxy-2-(1-methyl-1H-indazol-7-yl)acetamide], the concentration for half-maximal inhibition (IC50) in experiment [1] is 251 to 500 nM; in experiment [2] it was 3000 to 4000 nM.

Turning to `COc1cc(NC(=O)C(O)c2cccc(F)c2)ccc1-c1cn(C)c2nc(C)nc(N)c12` (single isomer, unassigned) [Example 105, N-(4-(4-amino-2,7-dimethyl-7H-pyrrolo[2,3-d]pyrimidin-5-yl)-3-methoxyphenyl)-2-(3-fluorophenyl)-2-hydroxyacetamide], the concentration for half-maximal inhibition (IC50) in experiment [1] and in experiment [2] was over 5000 nM each time.

`COc1cc(NC(=O)C(O)c2cccc(F)c2)ccc1-c1cn(C)c2nc(C)nc(N)c12` (single isomer, unassigned) [Example 106, N-(4-(4-amino-2,7-dimethyl-7H-pyrrolo[2,3-d]pyrimidin-5-yl)-3-methoxyphenyl)-2-(3-fluorophenyl)-2-hydroxyacetamide]: the values for the IC50 in experiment [1] and in experiment [2] were 101 to 250 nM and 1000 to 2000 nM, respectively.

`Cc1nc(N)c2c(-c3ccc(NC(=O)C(O)c4cccc(F)c4)c(F)c3F)cn(C)c2n1` (single isomer, unassigned) [Example 109, N-(4-(4-amino-2,7-dimethyl-7H-pyrrolo[2,3-d]pyrimidin-5-yl)-2,3-difluorophenyl)-2-(3-fluorophenyl)-2-hydroxyacetamide]: the concentration for half-maximal inhibition (IC50) was in the range of 251 to 500 nM in experiment [1] and 1000 to 2000 nM in experiment [2].

Take `Cc1nc(N)c2c(-c3ccc(NC(=O)C(O)c4cccc(F)c4)c(F)c3F)cn(C)c2n1` (single isomer, unassigned) [Example 110, N-(4-(4-amino-2,7-dimethyl-7H-pyrrolo[2,3-d]pyrimidin-5-yl)-2,3-difluorophenyl)-2-(3-fluorophenyl)-2-hydroxyacetamide]: the half-maximal inhibitory concentration (IC50) in experiment [1] and in experiment [2] was 1 to 25 nM throughout.

Take `Cc1nc(N)c2c(-c3ccc(NC(=O)C(O)c4cc(F)cc(F)c4)c(F)c3F)cn(C)c2n1` (single isomer, unassigned) [Example 113, N-(4-(4-amino-2,7-dimethyl-7H-pyrrolo[2,3-d]pyrimidin-5-yl)-2,3-difluorophenyl)-2-(3,5-difluorophenyl)-2-hydroxyacetamide]: the IC50 in experiment [1] and in experiment [2] was 1 to 25 nM in each case.

In the case of `Cc1nc(N)c2c(-c3ccc(NC(=O)C(O)c4ccccc4C)cc3F)cn(C)c2n1` (stereo not drawn) [Example 71, N-(4-(4-amino-2,7-dimethyl-7H-pyrrolo[2,3-d]pyrimidin-5-yl)-3-fluorophenyl)-2-hydroxy-2-(o-tolyl)acetamide], the IC50 in experiment [2] lay within 2000 to 3000 nM.

As to `Cc1nc(N)c2c(-c3ccc(NC(=O)C(O)c4ccccc4C)cc3F)cn(C)c2n1` (stereo not drawn) [Example 72, N-(4-(4-amino-2,7-dimethyl-7H-pyrrolo[2,3-d]pyrimidin-5-yl)-3-fluorophenyl)-2-hydroxy-2-(o-tolyl)acetamide], in experiment [2], the concentration for half-maximal inhibition (IC50) is 26 to 50 nM.

For `Cc1cc(NC(=O)Cc2cccc(C(F)(F)F)c2)ccc1-c1cn(C)c2ncnc(N)c12` [Example 158, N-(4-(4-amino-7-methyl-7H-pyrrolo[2,3-d]pyrimidin-5-yl)-3-methylphenyl)-2-(3-(trifluoromethyl)phenyl)acetamide], in experiment [1], the IC50 was 1 to 25 nM.

For `Cc1cc(NC(=O)Cc2ccccc2F)ccc1-c1cn(C)c2ncnc(N)c12` [Example 160, N-(4-(4-amino-7-methyl-7H-pyrrolo[2,3-d]pyrimidin-5-yl)-3-methylphenyl)-2-(2-fluorophenyl)acetamide], in experiment [1], the IC50 lay within 1 to 25 nM.

Turning to `Cc1cc(NC(=O)Cc2cccc(F)c2)ccc1-c1cn(C)c2ncnc(N)c12` [Example 161], in experiment [1], the half-inhibitory concentration (IC50) was 26 to 50 nM.
